{
  "source": "PubChem BioAssay AID2060349",
  "about": "(Molecular Pharmacology Branch, DTP, NCI, 2025)",
  "system": "762968-020-R-J2-PDC spheroids viability",
  "experiment": "Anticancer human tumor 762968-020-R-J2-PDC patient-derived colon carcinoma cell line growth inhibition [TAK]",
  "conditions": "spheroids with HUVEC and MSC; for viability, T/C: stronger effect = lower value",
  "procedure,_shortened": "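Spheroids of 60% malignant cells, 25% HUVEC and 15% hMSC were exposed to targeted agents combined with TAK-243 or ipatasertib. Concentrations started at or near clinical Cmax (10 microM if unknown) and descended in half-log steps.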",
  "key": {"[1]": {"conditions": "curve of first compound, second compound 0.3 µM"}, "[2]": {"conditions": "curve of first compound, second compound 0.949 µM"}, "[3]": {"conditions": "curve of first compound, second compound 3 µM"}, "[4]": {"conditions": "curve of first compound, second compound 9.49 µM"}, "[5]": {"conditions": "curve of first compound, second compound 30 µM"}},
  "note": "Several values for one entry are separate records, joined by “and”; a condition that tells them apart may be missing. Equal values may be shown once.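 Note: spheroids exposed to drug for 7 days before readout.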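 Throughout, for viability, T/C: 100% = DMSO vehicle control wells.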",
  "data": [
    {"smiles": "CC(=O)Nc1cccc(-n2c(=O)n(C3CC3)c(=O)c3c(Nc4ccc(I)cc4F)n(C)c(=O)c(C)c32)c1", "note": "+ CC(C)NCC(C(=O)N1CCN(c2ncnc3c2C(C)CC3O)CC1)c1ccc(Cl)cc1", "values": [
      {"measurement": "IC50", "setting": "[1]", "result": 0.0202, "unit": "µM"},
      {"measurement": "IC50", "setting": "[2]", "result": 0.0208, "unit": "µM"},
      {"measurement": "IC50", "setting": "[3]", "result": 0.0231, "unit": "µM"},
      {"measurement": "IC50", "setting": "[4]", "result": 0.0177, "unit": "µM"},
      {"measurement": "IC50", "setting": "[5]", "result": 0.0162, "unit": "µM"},
      {"measurement": "viability, T/C", "setting": "second compound 0.3 µM, first compound 94.9 pM", "result": 98.7, "unit": "%"},
      {"measurement": "viability, T/C", "setting": "second compound 0.3 µM, first compound 0.0003 µM", "result": 104, "unit": "%"},
      {"measurement": "viability, T/C", "setting": "second compound 0.3 µM, first compound 0.000949 µM", "result": 91.6, "unit": "%"},
      {"measurement": "viability, T/C", "setting": "second compound 0.3 µM, first compound 0.003 µM", "result": 82.2, "unit": "%"},
      {"measurement": "viability, T/C", "setting": "second compound 0.3 µM, first compound 0.00949 µM", "result": 70.1, "unit": "%"},
      {"measurement": "viability, T/C", "setting": "second compound 0.3 µM, first compound 0.03 µM", "result": 39.7, "unit": "%"},
      {"measurement": "viability, T/C", "setting": "second compound 0.949 µM, first compound 94.9 pM", "result": 92.9, "unit": "%"},
      {"measurement": "viability, T/C", "setting": "second compound 0.949 µM, first compound 0.0003 µM", "result": 98.1, "unit": "%"},
      {"measurement": "viability, T/C", "setting": "second compound 0.949 µM, first compound 0.000949 µM", "result": 91.8, "unit": "%"},
      {"measurement": "viability, T/C", "setting": "second compound 0.949 µM, first compound 0.003 µM", "result": 96, "unit": "%"},
      {"measurement": "viability, T/C", "setting": "second compound 0.949 µM, first compound 0.00949 µM", "result": 74.5, "unit": "%"},
      {"measurement": "viability, T/C", "setting": "second compound 0.949 µM, first compound 0.03 µM", "result": 38.5, "unit": "%"},
      {"measurement": "viability, T/C", "setting": "second compound 3 µM, first compound 94.9 pM", "result": 101, "unit": "%"},
      {"measurement": "viability, T/C", "setting": "second compound 3 µM, first compound 0.0003 µM", "result": 103, "unit": "%"},
      {"measurement": "viability, T/C", "setting": "second compound 3 µM, first compound 0.000949 µM", "result": 97.4, "unit": "%"},
      {"measurement": "viability, T/C", "setting": "second compound 3 µM, first compound 0.003 µM", "result": 90.2, "unit": "%"},
      {"measurement": "viability, T/C", "setting": "second compound 3 µM, first compound 0.00949 µM", "result": 80.2, "unit": "%"},
      {"measurement": "viability, T/C", "setting": "second compound 3 µM, first compound 0.03 µM", "result": 41.1, "unit": "%"},
      {"measurement": "viability, T/C", "setting": "second compound 9.49 µM, first compound 94.9 pM", "result": 96.1, "unit": "%"},
      {"measurement": "viability, T/C", "setting": "second compound 9.49 µM, first compound 0.0003 µM", "result": 99.1, "unit": "%"},
      {"measurement": "viability, T/C", "setting": "second compound 9.49 µM, first compound 0.000949 µM", "result": 95.6, "unit": "%"},
      {"measurement": "viability, T/C", "setting": "second compound 9.49 µM, first compound 0.003 µM", "result": 80.6, "unit": "%"},
      {"measurement": "viability, T/C", "setting": "second compound 9.49 µM, first compound 0.00949 µM", "result": 67.3, "unit": "%"},
      {"measurement": "viability, T/C", "setting": "second compound 9.49 µM, first compound 0.03 µM", "result": 36.3, "unit": "%"},
      {"measurement": "viability, T/C", "setting": "second compound 30 µM, first compound 94.9 pM", "result": 90.3, "unit": "%"},
      {"measurement": "viability, T/C", "setting": "second compound 30 µM, first compound 0.0003 µM", "result": 87.7, "unit": "%"},
      {"measurement": "viability, T/C", "setting": "second compound 30 µM, first compound 0.000949 µM", "result": 80.3, "unit": "%"},
      {"measurement": "viability, T/C", "setting": "second compound 30 µM, first compound 0.003 µM", "result": 71.4, "unit": "%"},
      {"measurement": "viability, T/C", "setting": "second compound 30 µM, first compound 0.00949 µM", "result": 60.9, "unit": "%"},
      {"measurement": "viability, T/C", "setting": "second compound 30 µM, first compound 0.03 µM", "result": 38.8, "unit": "%"}
    ]},
    {"smiles": "CC(C)(C)c1nc(-c2cccc(NS(=O)(=O)c3c(F)cccc3F)c2F)c(-c2ccnc(N)n2)s1", "note": "+ CC(C)NCC(C(=O)N1CCN(c2ncnc3c2C(C)CC3O)CC1)c1ccc(Cl)cc1", "values": [
      {"measurement": "IC50", "setting": "[1]", "result": "> 10", "unit": "µM"},
      {"measurement": "IC50", "setting": "[2]", "result": "> 10", "unit": "µM"},
      {"measurement": "IC50", "setting": "[3]", "result": "> 10", "unit": "µM"},
      {"measurement": "IC50", "setting": "[4]", "result": "> 10", "unit": "µM"},
      {"measurement": "IC50", "setting": "[5]", "result": "> 10", "unit": "µM"},
      {"measurement": "viability, T/C", "setting": "second compound 0.3 µM, first compound 0.0316 µM", "result": 92.8, "unit": "%"},
      {"measurement": "viability, T/C", "setting": "second compound 0.3 µM, first compound 0.1 µM", "result": 91.4, "unit": "%"},
      {"measurement": "viability, T/C", "setting": "second compound 0.3 µM, first compound 0.316 µM", "result": 84.8, "unit": "%"},
      {"measurement": "viability, T/C", "setting": "second compound 0.3 µM, first compound 1 µM", "result": 84.3, "unit": "%"},
      {"measurement": "viability, T/C", "setting": "second compound 0.3 µM, first compound 3.16 µM", "result": 92.4, "unit": "%"},
      {"measurement": "viability, T/C", "setting": "second compound 0.3 µM, first compound 10 µM", "result": 94.7, "unit": "%"},
      {"measurement": "viability, T/C", "setting": "second compound 0.949 µM, first compound 0.0316 µM", "result": 93.9, "unit": "%"},
      {"measurement": "viability, T/C", "setting": "second compound 0.949 µM, first compound 0.1 µM", "result": 90.2, "unit": "%"},
      {"measurement": "viability, T/C", "setting": "second compound 0.949 µM, first compound 0.316 µM", "result": 84.6, "unit": "%"},
      {"measurement": "viability, T/C", "setting": "second compound 0.949 µM, first compound 1 µM", "result": 86, "unit": "%"},
      {"measurement": "viability, T/C", "setting": "second compound 0.949 µM, first compound 3.16 µM", "result": 88.4, "unit": "%"},
      {"measurement": "viability, T/C", "setting": "second compound 0.949 µM, first compound 10 µM", "result": 92.8, "unit": "%"},
      {"measurement": "viability, T/C", "setting": "second compound 3 µM, first compound 0.0316 µM", "result": 95.6, "unit": "%"},
      {"measurement": "viability, T/C", "setting": "second compound 3 µM, first compound 0.1 µM", "result": 87.1, "unit": "%"},
      {"measurement": "viability, T/C", "setting": "second compound 3 µM, first compound 0.316 µM", "result": 94.8, "unit": "%"},
      {"measurement": "viability, T/C", "setting": "second compound 3 µM, first compound 1 µM", "result": 85.9, "unit": "%"},
      {"measurement": "viability, T/C", "setting": "second compound 3 µM, first compound 3.16 µM", "result": 92, "unit": "%"},
      {"measurement": "viability, T/C", "setting": "second compound 3 µM, first compound 10 µM", "result": 95, "unit": "%"},
      {"measurement": "viability, T/C", "setting": "second compound 9.49 µM, first compound 0.0316 µM", "result": 92.5, "unit": "%"},
      {"measurement": "viability, T/C", "setting": "second compound 9.49 µM, first compound 0.1 µM", "result": 86.4, "unit": "%"},
      {"measurement": "viability, T/C", "setting": "second compound 9.49 µM, first compound 0.316 µM", "result": 83.9, "unit": "%"},
      {"measurement": "viability, T/C", "setting": "second compound 9.49 µM, first compound 1 µM", "result": 79.9, "unit": "%"},
      {"measurement": "viability, T/C", "setting": "second compound 9.49 µM, first compound 3.16 µM", "result": 72, "unit": "%"},
      {"measurement": "viability, T/C", "setting": "second compound 9.49 µM, first compound 10 µM", "result": 92.5, "unit": "%"},
      {"measurement": "viability, T/C", "setting": "second compound 30 µM, first compound 0.0316 µM", "result": 81.4, "unit": "%"},
      {"measurement": "viability, T/C", "setting": "second compound 30 µM, first compound 0.1 µM", "result": 80.5, "unit": "%"},
      {"measurement": "viability, T/C", "setting": "second compound 30 µM, first compound 0.316 µM", "result": 81.6, "unit": "%"},
      {"measurement": "viability, T/C", "setting": "second compound 30 µM, first compound 1 µM", "result": 74.1, "unit": "%"},
      {"measurement": "viability, T/C", "setting": "second compound 30 µM, first compound 3.16 µM", "result": 74.5, "unit": "%"},
      {"measurement": "viability, T/C", "setting": "second compound 30 µM, first compound 10 µM", "result": 93.5, "unit": "%"}
    ]},
    {"smiles": "CC(C)n1nc(-c2ccc3oc(N)nc3c2)c2c(N)ncnc21", "values": [
      {"measurement": "viability, T/C", "setting": "compound 0.000316 µM", "result": "99% and 96.9%"},
      {"measurement": "viability, T/C", "setting": "compound 0.001 µM", "result": "99% and 101%"},
      {"measurement": "viability, T/C", "setting": "compound 0.00316 µM", "result": "98.2% and 101%"},
      {"measurement": "viability, T/C", "setting": "compound 0.01 µM", "result": "94.8% and 99.8%"},
      {"measurement": "viability, T/C", "setting": "compound 0.0316 µM", "result": "89.5% and 103%"},
      {"measurement": "viability, T/C", "setting": "compound 0.1 µM", "result": "66.5% and 83.3%"},
      {"measurement": "IC50", "setting": "curve of compound", "result": "> 0.1", "unit": "µM"}
    ]}
  ]
}
